Reference: US11440932B2, “Surfactant compounds-clips for extraction and stabilization in solution of membrane proteins” (CENTRE NATIONAL DE LA RECHERCHE SCIENTIFIQUE, priority 2017, dated 2022)
Entries after “also recorded” stand apart in the source; their conditions may differ. Non-standard residues stand in square brackets, D forms with d. Residues, ends and D or L forms follow the SMILES beside them. ξ: configuration not given here. *: point of attachment. Palmitoyl = CCCCCCCCCCCCCCCC(=O)*; Myristoyl = CCCCCCCCCCCCCC(=O)*; Lauroyl = CCCCCCCCCCCC(=O)*; Decanoyl = CCCCCCCCCC(=O)*; ξE = NC(CCC(=O)O)C(=O)O; ξD = NC(CC(=O)O)C(=O)O

Legend:
BmrA = molecular target: T1, BmrA (Bacillus subtilis, UniProt O06967); assay: Extraction of BmrA from membranes (SDS-PAGE of supernatant); parameters: species or system bacterial; overexpressed in E. coli C41DE3; settings: detergent 10 g/l unless indicated otherwise; 2 h at 4° C.
T1 construct: His tag; made in house; host or cells: E. coli C41(DE3)
T1 sequence (O06967 whole entry): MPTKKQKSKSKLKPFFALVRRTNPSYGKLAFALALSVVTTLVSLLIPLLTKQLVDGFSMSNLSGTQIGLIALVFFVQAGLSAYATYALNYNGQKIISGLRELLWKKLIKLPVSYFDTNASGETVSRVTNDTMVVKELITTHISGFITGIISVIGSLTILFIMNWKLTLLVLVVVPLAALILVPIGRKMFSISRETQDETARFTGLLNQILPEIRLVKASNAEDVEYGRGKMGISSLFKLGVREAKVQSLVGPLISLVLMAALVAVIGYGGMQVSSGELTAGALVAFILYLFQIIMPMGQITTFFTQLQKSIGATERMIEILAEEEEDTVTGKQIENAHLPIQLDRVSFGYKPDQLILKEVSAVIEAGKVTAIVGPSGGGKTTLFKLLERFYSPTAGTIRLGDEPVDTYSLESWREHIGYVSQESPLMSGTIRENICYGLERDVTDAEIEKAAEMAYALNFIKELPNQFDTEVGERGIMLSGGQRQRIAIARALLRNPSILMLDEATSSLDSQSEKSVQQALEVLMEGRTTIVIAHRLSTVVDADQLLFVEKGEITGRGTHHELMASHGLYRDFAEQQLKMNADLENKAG
Protocol: (§1) FIG. 6 depicts the extraction of the membrane proteins BmrA (panels A and C) and AcrB (panels B and D) using commercial detergents and the molecules of the invention (panels A and B, from left to right): SDS, DDM, FC12, TX100, compounds of the invention 1.4, 1.5, 2.3a, 2.3b, 2.3c, 2.3d, 2.3e, 2.3f, 2.3g, 2.3h, 2.3i, 3.7a, 3.7b; panel C: compounds of the invention 3.7c 0.8%, 3.7d 0.16%, 3.7e 0.8%, 3.7f 0.3%, 3.7g 0.4%, 3.7h 0.2%, 3.7i 0.07%, 3.7j 0.09%, 3.7k, 3.7l, 0.25%, 3.9a, 4.5a, 4.5b, 4.5c, 4.5d 0.34%, 4.6a, 4.6b, 4.6c, 4.6d, 5.3a, 5.3b, 5.3c 0.3%, 5.3d 0.3%; panel D: 3.7c, 3.7d, 3.7e, 3.7f, 3.7h, 3.7i 0.1%, 3.7j, 3.7k, 3.7l, 3.9a, 4.5a, 4.5b, 4.5c, 4.5d, 4.6a, 4.6b, 4.6c, 4.6d. The detergents are added at 10 g/l (1%), unless indicated otherwise. The equivalent of 20 μg of proteins of the extracted fraction after centrifugation at 100 000×g for 30 min is deposited on 10% SDS-PAGE, stained with Coomassie blue after migration. BmrA migrates in its monomeric form to the level of the 55 kDa band; AcrB migrates in its monomeric form to the level of the 100 kDa band. SDS=sodium dodecyl sulfate; DDM=β-D-dodecyl maltoside; FC12=foscholine-12; TX100=triton X-100.
(§2) The extraction capacity of the detergents of the series is tested on membranes in which BmrA or AcrB are strongly expressed. The extraction with the clips (molecules of the invention) is compared to that obtained with commercial detergents, used as reference.
(§3) Procedure. BmrA represents 25% of the proteins present in the overexpression system used (E. coli, C41DE3). These membranes are prepared as described previously (Matar-Merheb, R. et al. ([11])). The membranes containing AcrB (approximately 20% of the membrane proteins, same expression system as BmrA) were prepared as described previously (Seeger, M. A. et al. ([21])). The detergents are used at 10 g/l unless indicated otherwise, and the proteins diluted at 2 g/l in a 20 mM Tris-HCl buffer, pH 8.0, 100 mM NaCl, 15% glycerol, with protease inhibitors (Roche) added thereto at an amount of one tablet/100 ml. The mixture (T) is incubated for 2 h at 4° C. then centrifuged for 1 h at 4° C. at 100 000×g in order to separate the extracted fraction (supernatant, S) from that which is not extracted (pellet). The supernatants are deposited on 10% SDS-PAGE and stained with Coomassie blue after migration. The foscholine 12, DDM and LMNG originate from Anatrace, the SDS and Triton X100 originate from Sigma-Aldrich.

[1] = Critical micelle concentration (CMC) by DPH fluorescence; format: physicochemical; settings: 50 mM tris-HCl, pH 8.0
Protocol: FIG. 4 represents the fluorescence (%) of DPH (1,6-diphenyl-1,3,5-hexatriene) in the presence of increasing concentrations (0.0001 mM, 0.001 mM, 0.01 mM, 0.1 mM, 1 mM and 10 mM) of clips (compounds of the invention), exemplified with the compounds #3.7e (C13, points represented by squares) and 3.7f (C18, points represented by circles). The experiment is carried out in triplicates. In accordance with Chattopadhyay, A. & London, E ([22]), the CMC corresponds to the concentration at which the breakage in the slope is observed, here at 20 μM for 3.7f and 2 mM for 3.7e (black symbols).
Procedure. The molecules of the invention were prepared in a range of concentrations extending from 0.1 μM to 10 mM in 50 mM tris-HCl, pH 8.0 and neutralized at this pH. To 80 μl of each solution (triplicate), the same volume of 10 μM of 1,6-diphenyl-1,3,5-hexatriene (DPH, Sigma, D208000) is added, prepared at 100 μM in tetrahydrofuran then diluted 10-fold in H2O. The increase in the fluorescence of the DPH occurs when the latter find micelles of clips into which it can insert itself (Chattopadhyay, A. & London, E. Fluorimetric determination of critical micelle concentration avoiding interference from detergent charge. Anal Biochem 139, 408-412 (1984) ([22])). The fluorescence is read with a Xenius SAFAS fluorimeter by exciting at 358 nm and recording the fluorescence emission at 430 nm, with slits of 9 to 10 nm for the excitation and the emission and a gain of 100 to 150, depending on the cases.
Results. The CMC of the detergents is the concentration starting from which they associate with one another to form micelles, in which, in aqueous solution, the hydrophobic portions are grouped together at the center and the hydrophilic regions are exposed to the solvent. […] A typical result obtained with a compound 3.7 provided with a C13 (3.7e) or C18 ([…]) aliphatic chain is illustrated in FIG. 4.

AcrB = molecular target: T2, AcrB (Escherichia coli, UniProt P31224); assay: Extraction of AcrB from membranes (SDS-PAGE of supernatant); parameters: species or system bacterial; same expression system (E. coli C41DE3); settings: for extraction of AcrB: detergent 10 g/l unless indicated otherwise, 2 h at 4° C.; for selective extraction AcrB versus BmrA: comparison of extraction of AcrB and BmrA
T2 construct: made in house; host or cells: E. coli C41(DE3)
T2 sequence (P31224 whole entry): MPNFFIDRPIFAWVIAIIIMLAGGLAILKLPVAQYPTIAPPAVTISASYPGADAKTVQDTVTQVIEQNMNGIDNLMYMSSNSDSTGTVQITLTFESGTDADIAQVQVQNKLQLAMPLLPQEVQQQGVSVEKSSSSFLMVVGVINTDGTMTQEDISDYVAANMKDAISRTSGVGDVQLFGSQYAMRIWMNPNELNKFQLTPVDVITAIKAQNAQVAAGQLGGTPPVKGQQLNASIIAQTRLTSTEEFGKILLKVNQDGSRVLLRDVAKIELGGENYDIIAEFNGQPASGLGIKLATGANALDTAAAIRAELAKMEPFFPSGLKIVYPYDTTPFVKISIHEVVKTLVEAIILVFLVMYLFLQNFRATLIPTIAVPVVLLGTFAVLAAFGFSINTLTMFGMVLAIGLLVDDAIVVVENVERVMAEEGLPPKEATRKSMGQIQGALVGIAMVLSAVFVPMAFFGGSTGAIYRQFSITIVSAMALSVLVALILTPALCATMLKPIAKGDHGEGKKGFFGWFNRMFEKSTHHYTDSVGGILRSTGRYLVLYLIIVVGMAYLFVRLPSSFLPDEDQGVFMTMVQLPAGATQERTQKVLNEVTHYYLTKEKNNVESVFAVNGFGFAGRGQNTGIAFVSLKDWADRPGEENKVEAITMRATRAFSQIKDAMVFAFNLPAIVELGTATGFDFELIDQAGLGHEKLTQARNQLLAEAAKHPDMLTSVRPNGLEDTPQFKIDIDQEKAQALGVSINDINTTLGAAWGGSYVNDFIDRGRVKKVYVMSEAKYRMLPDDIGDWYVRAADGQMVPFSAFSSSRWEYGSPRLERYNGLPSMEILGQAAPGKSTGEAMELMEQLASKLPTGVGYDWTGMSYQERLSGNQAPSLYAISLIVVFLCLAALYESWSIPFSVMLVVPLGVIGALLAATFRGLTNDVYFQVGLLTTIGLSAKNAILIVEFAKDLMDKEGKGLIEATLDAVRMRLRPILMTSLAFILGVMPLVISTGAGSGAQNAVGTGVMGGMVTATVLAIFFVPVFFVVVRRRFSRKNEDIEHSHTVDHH
Protocol: as §1, §2, §3

Molecule	extraction of BmrA (BmrA)	CMC [1] [mM]	extraction of AcrB (AcrB)	selective extraction AcrB versus BmrA (AcrB)
CCCCCCCC(=O)N[C@@H](CO)C(=O)N[C@H](CCC(=O)O)C(=O)O [Compound 2.3b] (HELM PEPTIDE1{[CCCCCCCC(=O)[*:2]].S.[dE]}$$$$V2.0)	non-extracting	5	extracting	–
CCCCCCCCCCCCCC(=O)N[C@@H](CO)C(=O)N[C@H](CCC(=O)O)C(=O)O [Compound 2.3g] (HELM PEPTIDE1{[CCCCCCCCCCCCCC(=O)[*:2]].S.[dE]}$$$$V2.0)	extracting	–	extracting	–
O=C(O)CC[C@@H](NC(=O)[C@H](COCc1cn(CCO[C@@H]2OC(CO)[C@@H](O)C(O)C2O)nn1)NC(=O)CCCCC1CCCCC1)C(=O)O (stereo partly shown) [Compound 3.7k]	non-extracting	1	do not extract	–
CCCCCCCCCCCCCC(=O)NC(CC(=O)N[C@@H](CCC(=O)O)C(=O)O)C(=O)NC(CCC(=O)O)C(=O)O (stereo partly shown) [Compound 4.6c] (Myristoyl-[ξD](Glu)-[ξE]-OH)	–	1	extracting	–
CCCCCCCCCCCCCC(=O)N[C@@H](CO)C(=O)N[C@H](CCC(=O)O)C(=O)O [Compound 2.3a] (HELM PEPTIDE1{[CCCCCCCCCCCCCC(=O)[*:2]].S.[dE]}$$$$V2.0)	extracting	2	extracting	–
CCCNC(=O)[C@H](CO)N(CC(=O)O)CC(=O)O [Compound 1.5]	partially extracting	2.5	extracting	more effectively extract AcrB
CCCCCCCCCCCC(=O)NC(CC(=O)NC(CCC(=O)O)C(=O)O)C(=O)NC(CCC(=O)O)C(=O)O (stereo not shown) [Compound 4.6b] (Lauroyl-Asp(Glu)-Glu-OH; configuration not given here)	–	1	–	not extract, or only very slightly extract, AcrB, unlike BmrA
CCCCCCCCCC(=O)N[C@@H](COCc1cn(CCO[C@@H]2OC(CO)[C@@H](O)C(O)C2O)nn1)C(=O)N[C@H](CCC(=O)O)C(=O)O (stereo partly shown) [Compound 3.7a]	non-extracting	2	do not extract	–
CCCCCCCCCC(=O)NC(CC(=O)O)C(=O)NC(CCC(=O)O)C(=O)O (stereo not drawn) [Compound 4.5a] (Decanoyl-Asp-Glu-OH; configuration not given here)	non-extracting	3	partially extract	–
CCCCCCCCCC(=O)NC(CC(=O)NC(CCC(=O)O)C(=O)O)C(=O)NC(CCC(=O)O)C(=O)O (stereo not shown) [Compound 4.6a] (Decanoyl-Asp(Glu)-Glu-OH; configuration not given here)	non-extracting	1	do not extract	–
CCCCCCCCCCCCOP(=O)([O-])OCC[N+](C)(C)C [FC12, foscholine-12, reference compound]	effectively extracted	–	effectively extracted	–
triton X-100 [TX100, reference compound]	solubilize	–	solubilize	–
CCCCCCCCCCCCCCCC(=O)NC(CC(=O)NC(CCC(=O)O)C(=O)O)C(=O)NC(CCC(=O)O)C(=O)O (stereo not shown) [Compound 4.6d] (Palmitoyl-Asp(Glu)-Glu-OH; configuration not given here)	extracting	1	extracting; also recorded: partially extract	not extract, or only very slightly extract, AcrB, unlike BmrA
CCCCCCCCCCCCOS(=O)(=O)[O-].[Na+] [SDS, sodium dodecyl sulfate, reference compound]	effectively extracted	–	effectively extracted	–
CCCCCCCCCCCCCCCC(=O)N[C@@H](CO)C(=O)N[C@H](CCC(=O)O)C(=O)O [Compound 2.3h] (HELM PEPTIDE1{[CCCCCCCCCCCCCCCC(=O)[*:2]].S.[dE]}$$$$V2.0)	extracting	0.5	extracting	–
CCCCCCCCCCCCCC(=O)NC(CC(=O)O)C(=O)NC(CCC(=O)O)C(=O)O (stereo not drawn) [Compound 4.5c] (Myristoyl-Asp-Glu-OH; configuration not given here)	partially extracting	1.5	extracting	–
CCCCCCCCC(=O)N[C@@H](CO)C(=O)N[C@H](CCC(=O)O)C(=O)O [Compound 2.3c] (HELM PEPTIDE1{[CCCCCCCCC(=O)[*:2]].S.[dE]}$$$$V2.0)	non-extracting	3.5	extracting	–
CCCCCC(CCCCC)C(=O)N[C@@H](COCc1cn(CCO[C@@H]2OC(CO)[C@@H](O)C(O)C2O)nn1)C(=O)N[C@H](CCC(=O)O)C(=O)O (stereo partly shown) [Compound 3.7i]	non-extracting	1	do not extract	–
[2H]C([2H])([2H])C([2H])([2H])C([2H])([2H])C([2H])([2H])C([2H])([2H])C([2H])([2H])C([2H])([2H])C([2H])([2H])C([2H])([2H])C([2H])([2H])C([2H])([2H])C(=O)N[C@@H](CO)C(=O)N[C@H](CCC(=O)O)C(=O)O [Compound 2.3i]	extracting	–	extracting	–
CCCCCCCCCCCC(=O)NC(CC(=O)O)C(=O)NC(CCC(=O)O)C(=O)O (stereo not drawn) [Compound 4.5b] (Lauroyl-Asp-Glu-OH; configuration not given here)	partially extracting	2	extracting	–
CCCCCCCCCCCC(=O)N[C@@H](CO)C(=O)N[C@H](CCC(=O)O)C(=O)O [Compound 2.3e] (HELM PEPTIDE1{[CCCCCCCCCCCC(=O)[*:2]].S.[dE]}$$$$V2.0)	–	1	extracting	–
CCCCCCCCCCCCC(=O)N[C@@H](CO)C(=O)N[C@H](CCC(=O)O)C(=O)O [Compound 2.3f]	extracting	0.8	extracting	–
CCCNC(=O)[C@H](CO)NCC(=O)O [Compound 1.4]	extracting	–	–	–
